Assays:
Format in all cases: cell-based
[1] = molecular target: T1, Baculoviral IAP repeat-containing protein 2/E3 ubiquitin-protein ligase XIAP/Aryl hydrocarbon receptor (Homo sapiens, UniProt P35869+P98170+Q13490); experiment: SNIPER activity at IAP/AhR in human MCF7 cells assessed as induction of AhR protein degradation by measuring AhR protein level at 10 uM incubated for 24 hrs by western blot analysis relative to lamin B; details: mcf7, 24 h
[2] = molecular target: T2, IAP-Estrogen receptor (Homo sapiens) (UniProt P03372+P98170+Q13490); experiment: SNIPER activity at IAP/ERalpha in human MCF7 cells assessed as induction of ERalpha protein degradation by measuring ERalpha protein level at 10 uM incubated for 8 hrs by western blot analysis relative to lamin B
T2 sequence (P03372 whole entry, looked up): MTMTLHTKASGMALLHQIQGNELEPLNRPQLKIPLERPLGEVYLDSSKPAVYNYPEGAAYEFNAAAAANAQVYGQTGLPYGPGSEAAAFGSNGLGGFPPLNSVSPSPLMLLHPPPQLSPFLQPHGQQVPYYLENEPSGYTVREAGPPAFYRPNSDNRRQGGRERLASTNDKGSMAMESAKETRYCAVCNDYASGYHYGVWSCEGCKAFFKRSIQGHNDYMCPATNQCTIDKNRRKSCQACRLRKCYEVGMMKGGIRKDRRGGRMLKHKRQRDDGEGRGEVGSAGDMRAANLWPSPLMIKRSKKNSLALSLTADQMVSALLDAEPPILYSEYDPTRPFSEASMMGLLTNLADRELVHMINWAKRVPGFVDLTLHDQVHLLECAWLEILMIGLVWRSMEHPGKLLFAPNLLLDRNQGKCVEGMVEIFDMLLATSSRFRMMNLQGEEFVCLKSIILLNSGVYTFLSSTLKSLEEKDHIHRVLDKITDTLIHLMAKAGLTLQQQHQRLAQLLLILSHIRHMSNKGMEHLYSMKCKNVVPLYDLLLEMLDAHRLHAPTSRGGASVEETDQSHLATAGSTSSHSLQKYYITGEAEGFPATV
T2 sequence (P98170 whole entry, looked up): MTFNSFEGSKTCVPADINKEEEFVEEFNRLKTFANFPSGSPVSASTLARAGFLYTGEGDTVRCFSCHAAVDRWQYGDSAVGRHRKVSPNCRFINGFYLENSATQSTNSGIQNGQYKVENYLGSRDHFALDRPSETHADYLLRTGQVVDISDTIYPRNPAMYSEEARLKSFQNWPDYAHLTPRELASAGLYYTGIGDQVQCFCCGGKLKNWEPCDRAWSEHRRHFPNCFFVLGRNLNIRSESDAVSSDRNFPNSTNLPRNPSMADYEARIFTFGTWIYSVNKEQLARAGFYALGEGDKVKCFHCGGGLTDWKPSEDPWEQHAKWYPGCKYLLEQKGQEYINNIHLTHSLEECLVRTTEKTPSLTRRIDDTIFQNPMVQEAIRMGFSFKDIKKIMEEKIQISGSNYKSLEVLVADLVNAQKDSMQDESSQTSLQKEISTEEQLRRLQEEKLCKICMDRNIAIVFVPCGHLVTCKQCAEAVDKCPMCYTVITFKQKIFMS
T2 sequence (Q13490 whole entry, looked up): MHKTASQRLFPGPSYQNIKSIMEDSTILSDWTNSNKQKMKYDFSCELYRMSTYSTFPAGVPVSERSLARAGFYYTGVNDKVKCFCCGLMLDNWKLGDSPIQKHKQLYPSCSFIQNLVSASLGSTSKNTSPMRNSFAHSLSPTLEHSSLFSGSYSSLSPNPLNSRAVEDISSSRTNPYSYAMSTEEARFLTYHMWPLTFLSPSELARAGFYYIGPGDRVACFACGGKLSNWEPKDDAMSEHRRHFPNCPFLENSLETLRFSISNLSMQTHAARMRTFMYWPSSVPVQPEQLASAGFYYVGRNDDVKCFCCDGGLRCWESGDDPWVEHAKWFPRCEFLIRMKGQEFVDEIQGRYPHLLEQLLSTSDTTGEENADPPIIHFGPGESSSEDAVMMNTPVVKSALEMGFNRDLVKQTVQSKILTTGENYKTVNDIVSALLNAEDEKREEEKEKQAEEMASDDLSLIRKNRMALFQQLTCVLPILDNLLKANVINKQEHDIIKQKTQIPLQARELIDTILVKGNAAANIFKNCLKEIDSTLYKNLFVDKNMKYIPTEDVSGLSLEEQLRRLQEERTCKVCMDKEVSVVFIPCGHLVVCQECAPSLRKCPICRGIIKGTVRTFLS

[3] = molecular target: T3, IAP/Androgen receptor (Homo sapiens) (UniProt P10275+P98170+Q13490); experiment: SNIPER activity at IAP/AR in human MCF7 cells assessed as induction of AR protein degradation by measuring AR protein level at 20 uM incubated for 8 hrs in presence of proteasome inhibitor, MG132 by western blot analysis relative to lamin B
[4] = molecular target: T3, IAP/Androgen receptor (Homo sapiens); experiment: SNIPER activity at IAP/AR in human MCF7 cells assessed as induction of AR protein degradation by measuring AR protein level at 20 uM incubated for 24 hrs by western blot analysis relative to lamin B
[5] = molecular target: T3, IAP/Androgen receptor (Homo sapiens); experiment: SNIPER activity at IAP/AR in human MCF7 cells assessed as induction of AR protein degradation by measuring AR protein level at 20 uM incubated for 8 hrs by western blot analysis relative to lamin B
[6] = molecular target: T1, Baculoviral IAP repeat-containing protein 2/E3 ubiquitin-protein ligase XIAP/Aryl hydrocarbon receptor; experiment: SNIPER activity at IAP/AhR in human MCF7 cells assessed as induction of AhR protein degradation by measuring AhR protein level at 5 uM incubated for 24 hrs by western blot analysis relative to lamin B; details: mcf7, 24 h
[7] = molecular target: T3, IAP/Androgen receptor (Homo sapiens); experiment: SNIPER activity at IAP/AR in human MCF7 cells assessed as induction of AR protein degradation by measuring AR protein level at 20 uM incubated for 8 hrs in presence of ubiquitin activating inhibitor MLN7243 by western blot analysis relative to lamin B
[8] = molecular target: T2, IAP-Estrogen receptor (Homo sapiens); experiment: SNIPER activity at IAP/ERalpha in human MCF7 cells assessed as induction of ERalpha protein degradation by measuring ERalpha protein level at 20 uM incubated for 8 hrs by western blot analysis relative to lamin B
[9] = molecular target: T3, IAP/Androgen receptor (Homo sapiens); experiment: SNIPER activity at IAP/AR in human MCF7 cells assessed as induction of AR protein degradation by measuring AR protein level at 10 uM incubated for 8 hrs by western blot analysis relative to lamin B
[10] = molecular target: T3, IAP/Androgen receptor (Homo sapiens); experiment: SNIPER activity at IAP/AR in human MCF7 cells assessed as induction of AR protein degradation by measuring AR protein level at 10 uM incubated for 24 hrs by western blot analysis relative to lamin B
[11] = molecular target: T1, Baculoviral IAP repeat-containing protein 2/E3 ubiquitin-protein ligase XIAP/Aryl hydrocarbon receptor; experiment: SNIPER activity at IAP/AhR in human MCF7 cells assessed as induction of AhR protein degradation by measuring AhR protein level at 20 uM incubated for 8 hrs in presence of proteasome inhibitor, MG132 by western blot analysis relative to lamin B; details: mcf7, 8 h
[12] = molecular target: T1, Baculoviral IAP repeat-containing protein 2/E3 ubiquitin-protein ligase XIAP/Aryl hydrocarbon receptor; experiment: SNIPER activity at IAP/AhR in human MCF7 cells assessed as induction of AhR protein degradation by measuring AhR protein level at 20 uM incubated for 8 hrs by western blot analysis relative to lamin B; details: mcf7, 8 h
[13] = molecular target: T2, IAP-Estrogen receptor (Homo sapiens); experiment: SNIPER activity at IAP/ERalpha in human MCF7 cells assessed as induction of ERalpha protein degradation by measuring ERalpha protein level at 20 uM incubated for 24 hrs by western blot analysis relative to lamin B
[14] = molecular target: T3, IAP/Androgen receptor (Homo sapiens); experiment: SNIPER activity at IAP/AR in human MCF7 cells assessed as induction of AR protein degradation incubated for 8 to 24 hrs by western blot analysis; details: time hrs 8-24
[15] = molecular target: T3, IAP/Androgen receptor (Homo sapiens); experiment: SNIPER activity at IAP/AR in human MCF7 cells assessed as induction of AR protein degradation by measuring AR protein level at 5 uM incubated for 8 hrs by western blot analysis relative to lamin B
[16] = molecular target: T1, Baculoviral IAP repeat-containing protein 2/E3 ubiquitin-protein ligase XIAP/Aryl hydrocarbon receptor; experiment: SNIPER activity at IAP/AhR in human MCF7 cells assessed as induction of AhR protein degradation by measuring AhR protein level at 20 uM incubated for 8 hrs in presence of ubiquitin activating inhibitor MLN7243 by western blot analysis relative to lamin B; details: mcf7, 8 h
[17] = molecular target: T1, Baculoviral IAP repeat-containing protein 2/E3 ubiquitin-protein ligase XIAP/Aryl hydrocarbon receptor; experiment: SNIPER activity at IAP/AhR in human MCF7 cells assessed as induction of AhR protein degradation by measuring AhR protein level at 5 uM incubated for 8 hrs by western blot analysis relative to lamin B; details: mcf7, 8 h
[18] = molecular target: T2, IAP-Estrogen receptor (Homo sapiens); experiment: SNIPER activity at IAP/ERalpha in human MCF7 cells assessed as induction of ERalpha protein degradation incubated for 8 to 24 hrs by western blot analysis; details: time hrs 8-24
[19] = molecular target: T2, IAP-Estrogen receptor (Homo sapiens); experiment: SNIPER activity at IAP/ERalpha in human MCF7 cells assessed as induction of ERalpha protein degradation by measuring ERalpha protein level at 5 uM incubated for 8 hrs by western blot analysis relative to lamin B
[20] = molecular target: T2, IAP-Estrogen receptor (Homo sapiens); experiment: SNIPER activity at IAP/ERalpha in human MCF7 cells assessed as induction of ERalpha protein degradation by measuring ERalpha protein level at 10 uM incubated for 24 hrs by western blot analysis relative to lamin B
[21] = molecular target: T2, IAP-Estrogen receptor (Homo sapiens); experiment: SNIPER activity at IAP/ERalpha in human MCF7 cells assessed as induction of ERalpha protein degradation by measuring ERalpha protein level at 20 uM incubated for 8 hrs in presence of ubiquitin activating inhibitor MLN7243 by western blot analysis relative to lamin B
[22] = molecular target: T1, Baculoviral IAP repeat-containing protein 2/E3 ubiquitin-protein ligase XIAP/Aryl hydrocarbon receptor; experiment: SNIPER activity at IAP/AhR in human MCF7 cells assessed as induction of AhR protein degradation by measuring AhR protein level at 10 uM incubated for 8 hrs by western blot analysis relative to lamin B; details: mcf7, 8 h
[23] = molecular target: T1, Baculoviral IAP repeat-containing protein 2/E3 ubiquitin-protein ligase XIAP/Aryl hydrocarbon receptor; experiment: SNIPER activity at IAP/AhR in human MCF7 cells assessed as induction of AhR protein degradation by measuring AhR protein level at 20 uM incubated for 24 hrs by western blot analysis relative to lamin B; details: mcf7, 24 h
[24] = molecular target: T2, IAP-Estrogen receptor (Homo sapiens); experiment: SNIPER activity at IAP/ERalpha in human MCF7 cells assessed as induction of ERalpha protein degradation by measuring ERalpha protein level at 5 uM incubated for 24 hrs by western blot analysis relative to lamin B
[25] = molecular target: T2, IAP-Estrogen receptor (Homo sapiens); experiment: SNIPER activity at IAP/ERalpha in human MCF7 cells assessed as induction of ERalpha protein degradation by measuring ERalpha protein level at 20 uM incubated for 8 hrs in presence of proteasome inhibitor, MG132 by western blot analysis relative to lamin B
[26] = molecular target: T3, IAP/Androgen receptor (Homo sapiens); experiment: SNIPER activity at IAP/AR in human MCF7 cells assessed as induction of AR protein degradation by measuring AR protein level at 5 uM incubated for 24 hrs by western blot analysis relative to lamin B
[27] = molecular target: T3, IAP/Androgen receptor (Homo sapiens); experiment: SNIPER activity at IAP/AR in cIAP1 siRNA-transfected human MCF7 cells assessed as induction of AR protein degradation by measuring AR protein level at 20 uM incubated for 8 hrs by western blot analysis relative to lamin B
[28] = molecular target: T2, IAP-Estrogen receptor (Homo sapiens); experiment: SNIPER activity at IAP/ERalpha in cIAP1 siRNA-transfected human MCF7 cells assessed as induction of ERalpha protein degradation by measuring ERalpha protein level at 20 uM incubated for 8 hrs by western blot analysis relative to lamin B
[29] = molecular target: T2, IAP-Estrogen receptor (Homo sapiens); experiment: SNIPER activity at IAP/ERalpha in XIAP siRNA-transfected human MCF7 cells assessed as induction of ERalpha protein degradation by measuring ERalpha protein level at 20 uM incubated for 8 hrs by western blot analysis relative to lamin B
[30] = molecular target: T3, IAP/Androgen receptor (Homo sapiens); experiment: SNIPER activity at IAP/AR in XIAP/cIAP1 siRNA-transfected human MCF7 cells assessed as induction of AR protein degradation by measuring AR protein level at 20 uM incubated for 8 hrs by western blot analysis relative to lamin B
[31] = molecular target: T2, IAP-Estrogen receptor (Homo sapiens); experiment: SNIPER activity at IAP/ERalpha in XIAP/cIAP1 siRNA-transfected human MCF7 cells assessed as induction of ERalpha protein degradation by measuring ERalpha protein level at 20 uM incubated for 8 hrs by western blot analysis relative to lamin B
[32] = molecular target: T3, IAP/Androgen receptor (Homo sapiens); experiment: SNIPER activity at IAP/AR in XIAP siRNA-transfected human MCF7 cells assessed as induction of AR protein degradation by measuring AR protein level at 20 uM incubated for 8 hrs by western blot analysis relative to lamin B

T1 sequence (P35869 whole entry): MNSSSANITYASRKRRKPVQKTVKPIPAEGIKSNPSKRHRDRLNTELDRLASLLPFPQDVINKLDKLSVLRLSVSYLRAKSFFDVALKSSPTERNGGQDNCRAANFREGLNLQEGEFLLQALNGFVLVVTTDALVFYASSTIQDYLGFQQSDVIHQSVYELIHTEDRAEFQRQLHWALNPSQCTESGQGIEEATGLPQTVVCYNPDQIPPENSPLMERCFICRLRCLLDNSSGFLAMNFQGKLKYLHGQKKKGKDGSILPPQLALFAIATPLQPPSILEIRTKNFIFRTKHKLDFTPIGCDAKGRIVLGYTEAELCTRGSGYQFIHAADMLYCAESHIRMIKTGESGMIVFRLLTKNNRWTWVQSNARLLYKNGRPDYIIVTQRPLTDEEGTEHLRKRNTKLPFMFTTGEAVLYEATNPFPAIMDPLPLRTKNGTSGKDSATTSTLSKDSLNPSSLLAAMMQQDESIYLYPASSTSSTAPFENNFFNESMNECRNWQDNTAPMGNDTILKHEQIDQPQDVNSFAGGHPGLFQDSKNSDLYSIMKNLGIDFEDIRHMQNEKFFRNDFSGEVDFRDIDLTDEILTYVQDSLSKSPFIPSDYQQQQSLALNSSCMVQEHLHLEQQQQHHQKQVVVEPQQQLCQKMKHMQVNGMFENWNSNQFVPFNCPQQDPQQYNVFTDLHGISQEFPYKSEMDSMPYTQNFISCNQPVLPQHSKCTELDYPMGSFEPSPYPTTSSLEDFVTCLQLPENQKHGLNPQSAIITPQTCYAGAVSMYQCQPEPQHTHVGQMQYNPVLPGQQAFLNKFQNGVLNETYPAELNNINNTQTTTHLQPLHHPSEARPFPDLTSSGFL
T1 sequence (P98170 whole entry): as the sequence (P98170 whole entry, looked up) above
T1 sequence (Q13490 whole entry): as the sequence (Q13490 whole entry, looked up) above

`CC[C@H](C)[C@@H]1NC(=O)[C@H](NC(=O)[C@@H](N)CCCCNC(=O)COCCOCCNC(=O)COCCOCCNC(=O)[C@@H](NC(=O)[C@@H]2CCCN2C(=O)[C@@H](NC(=O)[C@H](C)NC)C2CCCCC2)C(c2ccccc2)c2ccccc2)CSSC[C@@H](C(=O)N[C@@H](CCCNC(=N)N)C(=O)N[C@@H](CC(C)(C)C)C(=O)N[C@@H](CC(C)C)C(=O)N[C@@H](CCC(N)=O)C(=O)NCC(=O)NCC(=O)NCC(=O)N[C@@H](CCCNC(=N)N)C(=O)N[C@@H](CCCNC(=N)N)C(=O)N[C@@H](CCCNC(=N)N)C(=O)N[C@@H](CCCNC(=N)N)C(=O)N[C@@H](CCCNC(=N)N)C(=O)N[C@@H](CCCNC(=N)N)C(=O)N[C@@H](CCCNC(=N)N)C(N)=O)NC(=O)[C@H](CC(C)C)NC1=O` was tested, and the Activity [1] was 189%, the Activity [2] was 66% and the Activity [3] was 90%. It also gave an Activity [4] of 57%, an Activity [5] of 35% and an Activity [6] of 97%. The Activity [7] was 110%, the Activity [8] was 48% and the Activity [9] was 56%. For the same molecule, the Activity [10] was 152%, the Activity [11] was 91% and the Activity [12] was 82%. The Activity [13] was 34%, the Activity [14] was “Dose-dependent effect” and the Activity [15] was 80%. The Activity [16] was 107%, the Activity [17] was 119% and the Activity [18] was “Dose-dependent effect”. It also gave an Activity [19] of 84%, an Activity [20] of 75% and an Activity [21] of 119%. It also gave an Activity [22] of 129%, an Activity [23] of 125% and an Activity [24] of 79%. The Activity [25] was 88% and the Activity [26] was 97%.

`CC[C@H](C)[C@@H]1NC(=O)[C@H](NC(=O)[C@@H](N)CCCCNC(=O)COCCOCCNC(=O)COCCOCCOc2cccc(C(=O)c3csc([C@@H]4CCCN4C(=O)[C@@H](NC(=O)[C@H](C)NC)C4CCCCC4)n3)c2)CSSC[C@@H](C(=O)N[C@@H](CCCNC(=N)N)C(=O)N[C@@H](CC(C)(C)C)C(=O)N[C@@H](CC(C)C)C(=O)N[C@@H](CCC(N)=O)C(=O)NCC(=O)NCC(=O)NCC(=O)N[C@@H](CCCNC(=N)N)C(=O)N[C@@H](CCCNC(=N)N)C(=O)N[C@@H](CCCNC(=N)N)C(=O)N[C@@H](CCCNC(=N)N)C(=O)N[C@@H](CCCNC(=N)N)C(=O)N[C@@H](CCCNC(=N)N)C(=O)N[C@@H](CCCNC(=N)N)C(N)=O)NC(=O)[C@H](CC(C)C)NC1=O` was tested, and the Activity [1] was 165%, the Activity [2] was 68% and the Activity [3] was 95%. It also gave an Activity [4] of 59%, an Activity [5] of 36% and an Activity [6] of 100%. For the same molecule, the Activity [7] was 117%, the Activity [8] was 46% and the Activity [9] was 63%. The Activity [27] was 78%, the Activity [10] was 137% and the Activity [28] was 50%. It also gave an Activity [11] of 90%, an Activity [12] of 80% and an Activity [13] of 35%. The Activity [29] was 62%, the Activity [14] was “Dose-dependent effect” and the Activity [15] was 81%. The Activity [16] was 110%, the Activity [17] was 111% and the Activity [18] was “Dose-dependent effect”. For the same molecule, the Activity [19] was 84%, the Activity [30] was 59% and the Activity [31] was 55%. For the same molecule, the Activity [32] was 57%, the Activity [20] was 76% and the Activity [21] was 122%. The Activity [22] was 128%, the Activity [23] was 103% and the Activity [24] was 81%. The Activity [25] was 94% and the Activity [26] was 99%.

Reference: ChEMBL document CHEMBL4725279, “Design and synthesis of peptide-based chimeric molecules to induce degradation of the estrogen and androgen receptors” (Bioorg Med Chem, 2020)
